In the test the target is T1, Halobacterium salinarum bacterio-rhodopsin (Halobacterium salinarum, UniProt P02945).
T1 construct: purchased SIGMA
T1 sequence (P02945 14-262): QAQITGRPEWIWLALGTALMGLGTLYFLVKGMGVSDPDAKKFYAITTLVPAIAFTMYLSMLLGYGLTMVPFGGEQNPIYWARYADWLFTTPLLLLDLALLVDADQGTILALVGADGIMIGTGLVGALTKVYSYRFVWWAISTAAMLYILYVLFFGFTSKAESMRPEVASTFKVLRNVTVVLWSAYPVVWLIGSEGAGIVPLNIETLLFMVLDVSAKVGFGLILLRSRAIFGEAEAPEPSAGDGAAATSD
Put plainly: Photomarking of bacteriorhodopsin (covalent bridging after UV irradiation, fluorescence detected on gel). It counts as biochemical. As to conditions: compound in DPC micelles (1:50 molar), protein-compound molar ratio 1:5, 1 hour in darkness at 4° C., 45 s UV irradiation, gel read on Fluorimager with rhodamine filter. The protocol:
• Reagents: • Dodecylphosphocholine (DPC) and Halobacterium salinarum bacterio-rhodopsin are from SIGMA. Egg yolk phosphatidylcholine (PC) and cholesterol (chol, 99% pure) are from Avanti Polar Lipids (Alabaster, USA). • Preparation of the Liposomes: • PC, chol and the lipid tool (12a-c) (molar ratio 65:30:5) dissolved in chloroform are mixed in a test tube. After evaporation of the solvent with heat (45 mins at 37° C.), the dry film is hydrated by adding 300 μl of PBS at pH 7.4 in order to obtain a final concentration of lipids of 5 mM. The mixture is stirred and the resulting suspension is heated to 37° C., and then cooled in liquid nitrogen 5 times, and then passed through an extruder equipped with two 100 nm filters (35 passages). • Fluorescence Spectroscopy: • The excitation and emission spectra of the probe compounds according to the invention, within liposomes are recorded at 32° C. on a TECAN Infinite M1000 spectrofluorimeter. The lipid composition of the liposomes is PC:chol:lipid-tool 65:30:5 (molar ratio). The <> control liposomes consist of PC:chol, and their residual fluorescence is subtracted from the measured fluorescence spectra. • Photomarking of Bacteriorhodopsin: • DPC is added to a compound as a solution in chloroform-methanol (2/1, v/v) in the compound/detergent proportion of 1:50 molar. After evaporation in a high vacuum for 2 hours, the dry lipid film is hydrated by adding 50 μL of distilled water and 50 μl of Tris-HCl pH 8.0. The bacterio-rhodopsin resuspended in distilled water, is incubated with the compounds according to invention in detergent micelles, in a protein-compound molar ratio of 1:5. […] After migration, the gel is first analyzed on a Fluorimager Typhoon 8600 equipped with a rhodamine filter, in order to detect fluorescence; the gel is then colored with Coomassie blue for viewing all the protein bands. […]
On to `CCCCCCc1ccc(C(=O)c2ccc(CCCCCC(=O)O)cc2)cc1` [1a, 6-(4-(4-n-hexylbenzoyl)phenyl)hexanoic acid], for which the “Intensity of the photomarking signal (arbitrary units - AU)” value (from here on “Intensity of the photomarking signal”) was 5 AU. For `CCCCCCCCCCc1ccc(C(=O)c2ccc(CC(=O)O)cc2)cc1` [1c, (4-(4-decylbenzoyl)phenyl)ethanoic acid], the “Intensity of the photomarking signal” value stood at 1 AU. Regarding `Cc1ccc(C(=O)c2ccc(CCCCCCCCCCC(=O)O)cc2)cc1` [1b], the “Intensity of the photomarking signal” value was 10 AU.

The values are drawn from patent US9234848B2, “Compounds having chromophore and photoreactive groups” (CENTRE NATIONAL DE LA RECHERCHE SCIENTIFIQUE (C.N.R.S.), priority 2011, dated 2016).
